From patent US20210030650A1, “USE OF A NOVEL COMPOSITION FOR PREVENTING OR SLOWING DOWN THE APPEARANCE OF UNSIGHTLY SIGNS RELATING TO THE PRESENCE OF EXCESS SEBUM” (SOCIETE D'EXPLOITATION DE PRODUITS POUR LES INDUSTRIES …, priority 2018, published 2021)
Like-named read-outs stand apart in the source and are kept apart here. One block for each molecule: values may come before it.

Tests used:
[1] = test system: lipase; test: Antilipase activity, in tubo method (1,2-diglyceride to glycerol, absorbance at 570 nm); assay type: biochemical; details: for % inhibition of the lipase: Table 11 experiment
Method: This involves studying the ability of a composition to […] and regulate the activity of the lipase enzyme by an in tubo method, said enzyme having an inflammatory action.
The samples in the evaluation test are placed in tubo in the presence of lipase and 1,2-diglyceride and the absorbance of the samples is measured with a spectrophotometer at the wavelength 570 nm as soon as they are prepared and then after 60 minutes of incubation at 37° C., under the same spectral conditions. By virtue of a range of glycerol, the lipase activity of the samples can be calculated, as well as the percentage of inhibition, according to the following formulae:
Lipase activity=(amount of glycerol formed between 0 and 60 minutes)/(60 minutes×sample volume)
Percentage of inhibition=100×[(lipase activity of the control group)−(lipase activity of the test product)]/(lipase activity of the control group).

[2] = test system: sebocytes of the SEBO662AR line; test: Overproduction of lipids by testosterone-stimulated sebocytes (Bodipy lipid droplet imaging, standardized by nuclei count); assay type: cell-based
From the text: The imbalance in the cutaneous microbiota occurs in particular when the proliferation of Propionibacterium acnes is observed. In this case also, Propionibacterium acnes induces inflammation of the skin, on the one hand by inducing the overproduction of lipids by sebocytes and, on the other hand, by producing a lipase which converts triglycerides into free fatty acids, which are irritating and chemotactic for neutrophils.
The effect of the composition (C1A) on the overproduction of lipids was studied on sebocytes of the SEBO662AR line (Bioalternatives line) sensitive to stimuli, such as testosterone, to produce lipids.
The sebocytes were first of all treated for 4 hours with the composition to be tested (or a positive reference). The testosterone was then added for 7 days to the culture medium, with renewal of the treatments and of the stimulation after 3 days. The formation of lipid droplets was detected by imaging using the Bodipy® fluorescent probe and the results were standardized by counting the nuclei with Hoechst staining.
The values are expressed as means+/−sem [standard error of the mean=standard deviation/root (number of values)].
% stimulation=100×[mean (cells+treatment)/mean (cells stimulated with testosterone)]
% inhibition=100×[mean (cells+treatment)−mean (cells stimulated with testosterone)/mean (untreated cells)−mean (cells stimulated with testosterone)]

[3] = Table 9, 1 nM testosterone, 0.006% compound
[4] = Table 9, 1 nM testosterone, 0.012% compound

Lipase activity ([1]; Table 11, 0.00012% by weight, control 4.72): 4.65 +/− 0.03 mU/ml | Lipase activity ([1]; Table 11, 0.00024% by weight, control 4.72): 4.15 +/− 0.03 mU/ml | Lipase activity ([1]; Table 11, 0.0006% by weight, control 4.72): 2.16 +/− 0.07 mU/ml | Lipase activity ([1]; Table 11, 0.0012% by weight, control 4.72): 1.02 +/− 0.01 mU/ml | % inhibition of the lipase ([1]; 0.0006% by weight): 54% | % inhibition of the lipase ([1]; 0.0012% by weight): 78%
SMILES: O=C(O)CC(O)C(=O)OC1(C(=O)O)CC(OC(=O)C=Cc2ccc(O)c(O)c2)C(OC(=O)C=Cc2ccc(O)c(O)c2)C(OC(=O)C=Cc2ccc(O)c(O)c2)C1 (stereo not drawn) [Compound of formula (Ia), 1-O-Maloyl-3,4,5-tri-O-caffeoylquinic acid]
Lipids, % change vs testosterone-stimulated cells ([2]; Table 9, 1 nM testosterone, 0.0012% compound): 21 | Lipids, % change vs testosterone-stimulated cells [2, 3]: −34 | Lipids, % inhibition [2, 3]: 38% | Lipids, % change vs testosterone-stimulated cells [2, 4]: −29 | Lipids, % inhibition [2, 4]: 32%

Lipase activity ([1]; Table 10, product at 1% by weight, 60 minutes at 37° C., control 4.21): 6.40 +/− 0.05 mU/m1
SMILES: CC(O)CO (stereo not drawn) [Propylene Glycol]

Lipase activity ([1]; Table 10, positive reference, concentration not given, 60 minutes at 37° C., control 4.21): 2.11 +/− 0.01 mU/m1 | Lipase activity ([1]; Table 11, positive reference, concentration not given, control 4.72): 1.36 +/− 0.01 mU/ml
SMILES: O=C1O[C@H]([C@@H](O)CO)C(O)=C1O [Vitamin C, reference compound]

SMILES: C[C@]12C=CC(=O)N[C@@H]1CC[C@@H]1[C@@H]2CC[C@]2(C)[C@@H](C(=O)Nc3cc(C(F)(F)F)ccc3C(F)(F)F)CC[C@@H]12 [dutasteride, reference compound]
inhibition at 1 µM ([2]; Table 8, cells stimulated with 1 nM testosterone, 1 μM dutasteride, read-out: Lipids (fluorescence intensity)/number of cells, % inhibition): 113% | Lipids (fluorescence intensity)/number of cells, % stimulation ([2]; Table 8, cells stimulated with 1 nM testosterone, 1 μM dutasteride, stimulated untreated cells = 100): 22% | Lipids, % change vs testosterone-stimulated cells ([2]; Table 9, 1 nM testosterone, 1 μM dutasteride): −82 | inhibition at 1 µM ([2]; Table 9, 1 nM testosterone, 1 μM dutasteride, read-out: Lipids, % inhibition): 91%
